In ChEMBL document CHEMBL1157539, “Thousands of chemical starting points for antimalarial lead identification” (Nature, 2010):

tested on: Plasmodium falciparum; assay: GSK_TCMDC: Inhibition of Plasmodium falciparum 3D7 in whole erythrocytes, using parasite LDH activity as an index of growth.; assay type: functional, organism-based; settings: Plasmodium falciparum, 3D7

SMILES	XC50
Cn1c(=O)c(-c2c(Cl)cccc2Cl)cc2cnc(Nc3ccc(N4CCOCC4)cc3)nc21	161 nM
Cc1ccccc1CNc1ccc2nc(N)nc(N)c2c1	171 nM
CCCc1cc2c3c(N)nc(N)nc3ccc2n1C(CC)CC	3.2 nM
CC(C)N1CCC(N(Cc2ccc(-c3ccc(C(F)(F)F)cc3)cc2)C(=O)Cn2c(CCc3cccc(F)c3F)cc(=O)c3ccccc32)CC1	850 nM
N=C(N)c1cccc(-c2cc(-c3cccc(C(=N)N)c3)on2)c1	86 nM
COc1ccc(NC(=O)/C=C/c2cc(F)cc(C(F)(F)F)c2)cc1OCCN(C(C)C)C(C)C	669 nM
COc1ccc2c(NN=Cc3ccccc3F)ccnc2c1	213 nM
Cc1cccc2nc(-c3cccc(-c4ccc(NC(=O)Cc5c[nH]cn5)cc4)c3)[nH]c12	688 nM
CCNc1cc(C(=O)N[C@@H](Cc2ccccc2)[C@H](O)CNC2(Cc3cccc(Cl)c3)CCC2)cc(N2CCCCS2(=O)=O)c1	1180 nM
CC1(C)N=C(N)N=C(N)N1c1cc(Cl)c(Cl)c(Cl)c1	11.4 nM
CCCNCc1ccc(-c2ccc(CN(CCOC)C(=O)CCCOCc3ccccc3)cc2)nc1	1160 nM
O=C(Nc1ccc(N2CCCN(Cc3cccc(F)c3)CC2)cc1)c1ccccc1	961 nM
CCc1cccc2c(C#N)cn(CC(=O)NCCc3ccccc3)c12	887 nM
CC(C)(CNCc1ccc(C(F)(F)F)cc1)c1nc(-c2ccc(Cl)c(O)c2)c(-c2ccncc2)[nH]1	734 nM
Cc1cccc2nc(-c3cccc(-c4ccc(NC(=O)C5CC(=O)Nc6ccccc65)cc4)c3)[nH]c12 (centres undefined)	685 nM
CC(c1cccc(S(=O)(=O)NCc2ccc(Cl)cc2Cl)c1)N1CCC(N2CCCCC2)CC1 (centres undefined)	747 nM
COc1cccc2c(NN=Cc3ccc(Cl)cc3)ccnc12	814 nM
CCCc1cc(C(=O)N[C@@H](Cc2ccccc2)[C@H](O)CNC(C)C)c(F)c(N2CCCC2=O)c1	943 nM
CC(C)CNC(=O)c1cncc(-c2ccc(CN3CCC(N4CCCC4)CC3)cc2)c1	689 nM
COc1ccc(-c2cncc(-c3ccc(OC)c(OC)c3)n2)cc1OC	777 nM
CC(Sc1nc(-c2ccccc2)c(-c2ccccc2)o1)C(=O)NC1CC1 (centres undefined)	843 nM
COc1cc2c(cc1OC)CN(CCCCc1ccc(NC(=O)c3cc(Cl)cc(Cl)c3)cc1)CC2	1200 nM
CC(=O)Nc1ccc(CN2CCC(CNC(=O)c3cc(-c4cccc(C(F)(F)F)c4)cs3)C2)cc1 (centres undefined)	1100 nM
O=C(O)CCCN1CCCC(=C(c2ccccc2)c2ccccc2)C1	1190 nM
COc1ccc(NC(=O)[C@H](Cc2ccccc2)Nc2cc(C)nc(NCCN3CCCC3)n2)cc1	1390 nM

SMILES	XC50
COc1ccc(C(=O)NCc2ccccc2-c2ccc(C(C)(C)C)cc2)cc1O	99.6 nM
O=C(Cc1ccc(-c2ccccc2)cc1)N[C@H]1CCN(Cc2ccc(OCCCN3CCCCC3)cc2)C1	772 nM
Nc1cc(-c2cc3c(OCc4ccccc4)cccc3[nH]2)ccn1	1190 nM
CC(=O)N[C@H](C(=O)Nc1ccc(-c2ccc(-c3nc4cc(C(F)(F)F)ccc4[nH]3)s2)cc1)C(C)C	1030 nM
Cc1cc(C2CCN(CCCCNC(=O)c3ccc(-c4ccc(C(F)(F)F)cc4)cc3)CC2)c(C)cc1OCC(N)=O	805 nM
Cc1nc(N)nc(N)c1-c1ccc(Br)cc1	232 nM
O=S(=O)(/C=C/c1ccccc1)N(Cc1ccc(-c2ccc(CNCCc3ccccc3)cc2)cc1)CC1CCCCN1 (centres undefined)	794 nM
COc1cc2nc(NCCn3cccn3)nc(NCCc3ccccc3)c2cc1OC	281 nM
CN(C)S(=O)(=O)c1ccc(C(=O)N(c2nc(-c3ccccc3)cs2)C2CCCCC2)cc1	760 nM
COc1ccc2nccc(CCN3CC(O)C(CNCc4ccc5c(n4)NC(=O)CS5)C3)c2n1 (centres undefined)	1460 nM
COc1ccccc1NC(=O)c1cc(C(=O)c2cc(Cl)ccc2O)cn(-c2ccccc2OC)c1=O	943 nM
COc1ccc2c(Nc3ccc(N4CCN(C)CC4)cc3)cc(C)nc2c1	719 nM
COCCNCc1cccc(-c2cccc(CNC3CCN(Cc4ccccc4)CC3)c2)c1	283 nM
Cc1cc(C(=O)N(Cc2ccc(-c3ccc(CNCCc4ccc(S(C)(=O)=O)cc4)cn3)cc2)C(C)CN(C)C)ccc1[N+](=O)[O-] (centres undefined)	789 nM
CCOc1cc(C(C)C)ccc1C1CCN(CCCCNC(=O)c2ccc(NC(=O)c3ccc(Cl)cc3)cc2)CC1	813 nM
CCOCc1cnc(C)nc1NCC(=O)c1c(C)[nH]c2cc(C)ccc12	1210 nM
O=C(Nc1ccc(C(F)(F)F)cc1)NC1CCN(c2ccnc3ccccc23)CC1	185 nM
CN1CCN(c2ccnc3ccc(NC(=O)Nc4cccc5ccccc45)cc23)CC1	488 nM
COc1cccc2sc(N3CCN(C(=O)c4ccc([N+](=O)[O-])o4)CC3)nc12	869 nM
C[C@H](NC(=O)[C@H](CCCCNC(=O)OC(C)(C)C)NC(=O)OC(C)(C)c1ccc(-c2ccccc2)cc1)C(=O)OCc1ccccc1	181 nM
COc1ccc(-c2ncnc(C(F)(F)F)c2-c2ccc(Cl)cc2)c(O)c1	805 nM
COc1ccccc1N1CCN(C(C(=O)NCc2ccc(C)cc2)c2ccc(C)cc2)CC1 (centres undefined)	932 nM
CC(CNC(=N)c1cccc(C(=N)NCC(C)Oc2cccc(C3CCCCC3)c2)n1)Oc1cccc(C2CCCCC2)c1 (centres undefined)	917 nM
Cc1c(Cn2ncc(N3CCC(N)CC3)c(Cl)c2=O)cccc1NC(=O)Nc1ccc(-c2ccccc2)cc1	697 nM
Cc1cc(=O)c(C2CCC(c3ccc(Cl)cc3)CC2)c(C)[nH]1 (centres undefined)	743 nM

SMILES	XC50
COc1cc(Nc2ncc3c(C)nc(-c4cc5ccccc5[nH]4)n3n2)cc(OC)c1OC	1020 nM
O=C(Nc1ccccc1-c1nc2ccccc2s1)C(Cl)(Cl)Cl	638 nM
Cc1onc(-c2c(Cl)cccc2Cl)c1C(=O)N1CCc2cc3nccc(N4CCN5CCC[C@H]5C4)c3cc21	768 nM
Cc1cc(N(CCO)CCCN2CCCCC2)nc(Nc2ccc(Cl)cc2)n1	547 nM
CCN1CCC2(c3cccc(OC)c3)Cc3nc4ccccc4c(-c4ccccc4)c3CC2C1 (centres undefined)	348 nM
COc1ccc(CNCCc2cccs2)cc1-c1ccc(S(=O)(=O)NCCN2CCCC2)s1	877 nM
O=C(Nc1ccc(Cl)cc1)Nc1ccc(-c2csc(-c3nc4ccccc4[nH]3)c2)cc1	799 nM
COc1cccc(Cc2cnc3nc(N)nc(N)c3c2C)c1	173 nM
N#Cc1ccc2c(c1)CCN(CCC1CCC(NC(=O)c3ccc(-c4ccccn4)s3)CC1)CC2 (centres undefined)	1010 nM
CN(CCCCCNC(=O)/C=C/c1ccc(Cl)c(Cl)c1)CCc1c[nH]c2ccccc12	874 nM
O=C(Nc1ccc(Cl)cc1)NC1CCN(CCCCCNC(=O)C2CC2c2ccc(Cl)c(Cl)c2)CC1 (centres undefined)	576 nM
CC[C@H]1CN2CC[C@H]1C[C@@H]2[C@@H](OC(=O)c1ccc(Cl)cc1)c1ccnc2ccc(OC)cc12	922 nM
Cc1ccc(O)c(-c2cc(C(=O)Nc3ccc(S(=O)(=O)N4CCCC(C)C4)cc3)[nH]n2)c1 (centres undefined)	707 nM
O=C(N[C@@H](CC1CCCCC1)C(=O)NCCN1CCCC1)c1ccc(O)c(-c2ccc(Cl)c(Cl)c2)c1	312 nM
CN(CCc1ccccc1)c1ncc(-c2ccccc2CNCc2ccccc2O)cn1	1020 nM
CC(C)CNCc1ccc(-c2cccc(CNC3CCN(Cc4ccccc4)CC3)c2)cc1	239 nM
O=C(OCc1ccccc1)N1CCc2c([nH]c3ccccc23)C1CCC(F)(F)F (centres undefined)	425 nM
COc1c(C2CCN(CCCCNC(=O)c3ccc(-c4ccc(C#N)cc4)c(O)c3)CC2)ccc2c1CCCC2	199 nM
Clc1ncnc2ncn(Cc3cccc(Br)c3)c12	1060 nM
COCCNCc1ccc(-c2ccc(CN(C(=O)NC3CCCCC3)C3CCN(Cc4ccccc4)CC3)cc2)cc1	960 nM
O=C(Nc1ccc(-c2cccc(-c3nc4cc(C(F)(F)F)ccc4[nH]3)c2)cc1)c1ccncc1	664 nM
Nc1c2ccccc2nc2ccc(-c3ccccc3)cc12	140 nM
O=C(NC1CCC(CCN2Cc3cccc(C(F)(F)F)c3C2)CC1)c1cccc(-c2cccnc2)c1 (centres undefined)	1020 nM
Cc1nc(N)nc(N)c1CCCOc1cccc(Cl)c1	476 nM
COc1ccc2[nH]ccc(=NN=Cc3ccccc3Cl)c2c1	664 nM

SMILES	XC50
O=c1cc(NCCCNC2CCOc3c(Cl)cc(Cl)cc32)[nH]c2ccccc12 (centres undefined)	724 nM
CN1CCCC1CCNC(=O)[C@H](CC1CCCCC1)NC(=O)c1ccc(O)c(-c2ccc(Cl)c(Cl)c2)c1 (some centres undefined)	736 nM
COCCn1c(C)nc2ccccc2c1=O	1460 nM
CCN(CC)c1ccc2nc(N)nc(N)c2c1Cl	30.9 nM
COc1c(Br)cc(Br)cc1C(C)=O	989 nM
O=C(Nc1cccc(-c2ccc(-c3nc4cc(C(F)(F)F)ccc4[nH]3)s2)c1)c1c[nH]cn1	1110 nM
COc1cc(C(=O)NC2CCc3ccccc32)cc(Cl)c1OC (centres undefined)	1100 nM
c1ccc(CN2CCN(CCCCNc3c4ccccc4nc4ccccc34)CC2)cc1	117 nM
O=C(Nc1ccc(Oc2ccccc2)cc1)N(CCN1CCCC1)Cc1ccc(-c2ccc(CN3CCNCC3)cc2)cc1	892 nM
CCCC(CNCc1cccc(I)c1)CNc1cc(=O)c2ccccc2[nH]1 (centres undefined)	471 nM
OCc1ccc2nc3c(cc2c1)-c1cccc2cccc-3c12	664 nM
O=C(NC12CC3CC(CC(C3)C1)C2)C(=O)c1c[nH]c2ccccc12	232 nM
Cc1cccc2nc(-c3ccc(-c4cccc(CNCCc5ccncc5)c4)s3)[nH]c12	138 nM
O=C(Nc1cccc(-c2ccc(-c3nc4cc(C(F)(F)F)ccc4[nH]3)cc2)c1)c1csnn1	686 nM
O=C(NC1CCCCC1)N(Cc1ccc(-c2ccc(CNC3CCCC3)cc2)cc1)C1CCN(Cc2ccccc2)CC1	780 nM
Cc1ccc(F)c(OC2CCN(c3ccc(C(=O)NC4CC4)cn3)CC2)c1	823 nM
CCc1cn(C)c2c(N3CCCC3=O)cc(C(=O)N[C@@H](Cc3ccccc3)[C@H](O)CNC3CCCCC3)cc12	118 nM
Cc1cc(C(=O)Nc2ccc3c(c2)CCN3C2CCN(Cc3cc(F)cc(F)c3F)C2)no1 (centres undefined)	282 nM
Fc1ccc2nc(Nc3nc(-c4ccccn4)cs3)sc2c1	560 nM
O=C(NCc1ccc(Cl)cc1)c1ccc(C(=O)NCC2CCCN2CC2CCCCC2)cc1 (centres undefined)	854 nM
c1ccc(-c2cc(NCc3cccc4ccccc34)c3[nH]ncc3n2)cc1	518 nM
Cc1cccc(N2CCN(Cc3cc(Cl)ccc3O)CC2)c1C	771 nM
O=C(c1cc(C(=O)NCc2ccc(Cl)cc2)c(=O)n(Cc2ccc(Cl)cc2)c1)c1cc(F)ccc1O	949 nM
c1ccc(CNCCn2c(-c3ccc4c(c3)CCO4)nc3c(N4CCCC4)cccc32)cc1	1130 nM
